Results taken from US6358885B1, “Substituted phenylheterocyclic herbicides” (Mississippi State University, priority 1992, dated 2002).

Tests used:
wheat = assay: Test B preemergence/postemergence greenhouse plant response rating 0 to 10; format: in vivo, Triticum aestivum; conditions: 0 to 10 scale
Procedure, shortened: (§1)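 Test chemicals, dissolved in a non-phytotoxic solvent, were applied to soil at planting and, at the same time, over foliage of seedlings at the one to four leaf stage.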

wild oat = assay: as above; format: in vivo, Avena fatua; conditions: 0 to 10 scale
Procedure, shortened: as §1

bedstraw = assay: Test C preemergence/postemergence greenhouse plant response rating 0 to 100; format: in vivo, Galium aparine; conditions: POSTEMERGENCE; for Plant response rating, Bedstraw: 0 to 100 scale
Procedure, shortened: (§2)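 Compounds in non-phytotoxic solvent went onto sandy loam before emergence (seeded one day earlier) or onto plants at the one-to-four leaf stage. Duck salad was treated via flood water (~2.5 cm, maintained) over silt loam.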

rape = assay: Test B preemergence/postemergence greenhouse plant response rating 0 to 10; format: in vivo, Brassica napus; conditions: 0 to 10 scale
Procedure, shortened: as §1

corn = assay: as above; format: in vivo, Zea mays; conditions: 0 to 10 scale
Procedure, shortened: as §1

morningglory [1] = assay: Test C preemergence/postemergence greenhouse plant response rating 0 to 100; format: in vivo, Ipomoea hederacea; conditions: POSTEMERGENCE; for Plant response rating, Morningglory: 0 to 100 scale
Procedure, shortened: as §2

barley = assay: as above; format: in vivo, Hordeum vulgare; conditions: POSTEMERGENCE; for Plant response rating Barley Igri: 0 to 100 scale
Procedure, shortened: as §2

umbrella sedge = assay: Test C flood test plant response rating 0 to 100; format: in vivo, Cyperus difformis; conditions: for Plant response rating Umbrella sedge: flood test species listed under POSTEMERGENCE, 0 to 100 scale
Procedure, shortened: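 Compounds in non-phytotoxic solvent applied preemergence to sandy loam one day after planting, postemergence at the 1–4 leaf stage, or to ~2.5 cm floodwater over silt loam.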

chickweed [2] = assay: Test C preemergence/postemergence greenhouse plant response rating 0 to 100; format: in vivo, Stellaria media; conditions: POSTEMERGENCE; for Plant response rating, Chickweed: 0 to 100 scale
Procedure, shortened: as §2

crabgrass = assay: Test B preemergence/postemergence greenhouse plant response rating 0 to 10; format: in vivo, Digitaria spp.; conditions: 0 to 10 scale
Procedure, shortened: as §1

soybean [3] = assay: as above; format: in vivo, Glycine max; conditions: 0 to 10 scale
Procedure, shortened: as §1

chickweed [4] = assay: as above; format: in vivo, Stellaria media; conditions: 0 to 10 scale
Procedure, shortened: as §1

downy brome = assay: Test C preemergence/postemergence greenhouse plant response rating 0 to 100; format: in vivo, Bromus tectorum; conditions: POSTEMERGENCE; for Plant response rating Downy Brome: 0 to 100 scale
Procedure, shortened: as §2

purple nutsedge = assay: Test B preemergence/postemergence greenhouse plant response rating 0 to 10; format: in vivo, Cyperus rotundus; conditions: 0 to 10 scale
Procedure, shortened: as §1

soybean [5] = assay: Test C preemergence/postemergence greenhouse plant response rating 0 to 100; format: in vivo, Glycine max; conditions: POSTEMERGENCE; for Plant response rating, Soybean: 0 to 100 scale
Procedure, shortened: as §2

wild buckwheat = assay: as above; format: in vivo, Polygonum convolvulus; conditions: POSTEMERGENCE; for Plant response rating, Wild buckwheat: 0 to 100 scale
Procedure, shortened: as §2

sorghum = assay: Test B preemergence/postemergence greenhouse plant response rating 0 to 10; format: in vivo, Sorghum bicolor; conditions: 0 to 10 scale
Procedure, shortened: as §1

morningglory [6] = assay: as above; format: in vivo, Ipomoea hederacea; conditions: 0 to 10 scale
Procedure, shortened: as §1

## C#CC(C)N1C(=O)COc2cc(F)c(-c3nn4c(c3Cl)CCCC4)cc21 (centres unmarked) [Compound 50]
wheat; POSTEMERGENCE, Rate 10 g/ha
  Plant response rating, Wheat: 4
wheat; POSTEMERGENCE, Rate 50 g/ha
  Plant response rating, Wheat: 4
wheat; PREEMERGENCE, Rate 50 g/ha
  Plant response rating, Wheat: 0
Wild oat; POSTEMERGENCE, Rate 10 g/ha
  Plant response rating, Wild oat: 3
Wild oat; POSTEMERGENCE, Rate 50 g/ha
  Plant response rating, Wild oat: 4
Wild oat; PREEMERGENCE, Rate 50 g/ha
  Plant response rating, Wild oat: 3
bedstraw; 62 g/ha
  Plant response rating, Bedstraw: 100
bedstraw; 250 g/ha
  Plant response rating, Bedstraw: 100
bedstraw; Rate 1 g/ha
  Plant response rating (0 to 100), Bedstraw: 10
bedstraw; Rate 4 g/ha
  Plant response rating (0 to 100), Bedstraw: 20
bedstraw; Rate 16 g/ha
  Plant response rating (0 to 100), Bedstraw: 60
rape; POSTEMERGENCE, Rate 10 g/ha
  Plant response rating, Rape: 9
rape; POSTEMERGENCE, Rate 50 g/ha
  Plant response rating, Rape: 10
rape; PREEMERGENCE, Rate 50 g/ha
  Plant response rating, Rape: 8
corn; POSTEMERGENCE, Rate 10 g/ha
  Plant response rating, Corn: 3
corn; POSTEMERGENCE, Rate 50 g/ha
  Plant response rating, Corn: 4
corn; PREEMERGENCE, Rate 50 g/ha
  Plant response rating, Corn: 0
Morningglory [1]; 62 g/ha
  Plant response rating, Morningglory: 100
Morningglory [1]; 250 g/ha
  Plant response rating, Morningglory: 100
Morningglory [1]; Rate 1 g/ha
  Plant response rating (0 to 100), Morningglory: 50
Morningglory [1]; Rate 4 g/ha
  Plant response rating (0 to 100), Morningglory: 70
Morningglory [1]; Rate 16 g/ha
  Plant response rating (0 to 100), Morningglory: 100
barley; 62 g/ha
  Plant response rating Barley Igri: 40
barley; 250 g/ha
  Plant response rating Barley Igri: 50
barley; Rate 1 g/ha
  Plant response rating (0 to 100), Barley Igri: 0
barley; Rate 4 g/ha
  Plant response rating (0 to 100), Barley Igri: 20
barley; Rate 16 g/ha
  Plant response rating (0 to 100), Barley Igri: 30
Umbrella sedge; POSTEMERGENCE section, flood test, Rate 4 g/ha
  Plant response rating (0 to 100), Umbrella sedge: 0
Umbrella sedge; Rate 16 g/ha, under POSTEMERGENCE head (flood test species)
  Plant response rating (0 to 100), Umbrella sedge: 0
Umbrella sedge; 62 g/ha
  Plant response rating Umbrella sedge: 75
Umbrella sedge; 250 g/ha
  Plant response rating Umbrella sedge: 95
Chickweed [2]; 62 g/ha
  Plant response rating, Chickweed: 100
Chickweed [2]; 250 g/ha
  Plant response rating, Chickweed: 100
Chickweed [2]; Rate 1 g/ha
  Plant response rating (0 to 100), Chickweed: 20
Chickweed [2]; Rate 4 g/ha
  Plant response rating (0 to 100), Chickweed: 30
Chickweed [2]; Rate 16 g/ha
  Plant response rating (0 to 100), Chickweed: 80
crabgrass; POSTEMERGENCE, Rate 10 g/ha
  Plant response rating, Crabgrass: 3
crabgrass; POSTEMERGENCE, Rate 50 g/ha
  Plant response rating, Crabgrass: 4
crabgrass; PREEMERGENCE, Rate 10 g/ha
  Plant response rating, Crabgrass: 0
crabgrass; PREEMERGENCE, Rate 50 g/ha
  Plant response rating, Crabgrass: 0
Soybean [3]; POSTEMERGENCE, Rate 10 g/ha
  Plant response rating, Soybean: 6
Soybean [3]; POSTEMERGENCE, Rate 50 g/ha
  Plant response rating, Soybean: 9
Soybean [3]; PREEMERGENCE, Rate 50 g/ha
  Plant response rating, Soybean: 3
Chickweed [4]; POSTEMERGENCE, Rate 10 g/ha
  Plant response rating, Chickweed: 9
Chickweed [4]; POSTEMERGENCE, Rate 50 g/ha
  Plant response rating, Chickweed: 10
Chickweed [4]; PREEMERGENCE, Rate 10 g/ha
  Plant response rating, Chickweed: 0
Chickweed [4]; PREEMERGENCE, Rate 50 g/ha
  Plant response rating, Chickweed: 10
Downy brome; 62 g/ha
  Plant response rating Downy Brome: 50
Downy brome; 250 g/ha
  Plant response rating Downy Brome: 60
Downy brome; Rate 1 g/ha
  Plant response rating (0 to 100), Downy Brome: 0
Downy brome; Rate 4 g/ha
  Plant response rating (0 to 100), Downy Brome: 30
Downy brome; Rate 16 g/ha
  Plant response rating (0 to 100), Downy Brome: 40
Purple nutsedge; POSTEMERGENCE, Rate 10 g/ha
  Plant response rating, Nutsedge: 4
Purple nutsedge; POSTEMERGENCE, Rate 50 g/ha
  Plant response rating, Nutsedge: 5
Purple nutsedge; PREEMERGENCE, Rate 50 g/ha
  Plant response rating, Nutsedge: 0
Soybean [5]; 62 g/ha
  Plant response rating, Soybean: 90
Soybean [5]; 250 g/ha
  Plant response rating, Soybean: 90
Soybean [5]; Rate 1 g/ha
  Plant response rating (0 to 100), Soybean: 40
Soybean [5]; Rate 4 g/ha
  Plant response rating (0 to 100), Soybean: 60
Soybean [5]; Rate 16 g/ha
  Plant response rating (0 to 100), Soybean: 70
Wild buckwheat; 62 g/ha
  Plant response rating, Wild buckwheat: 100
Wild buckwheat; 250 g/ha
  Plant response rating, Wild buckwheat: 100
Wild buckwheat; Rate 1 g/ha
  Plant response rating (0 to 100), Wild buckwheat: 0
Wild buckwheat; Rate 4 g/ha
  Plant response rating (0 to 100), Wild buckwheat: 20
Wild buckwheat; Rate 16 g/ha
  Plant response rating (0 to 100), Wild buckwheat: 80
sorghum; POSTEMERGENCE, Rate 10 g/ha
  Plant response rating, Sorghum: 4
sorghum; POSTEMERGENCE, Rate 50 g/ha
  Plant response rating, Sorghum: 3
sorghum; PREEMERGENCE, Rate 50 g/ha
  Plant response rating, Sorghum: 0
Morningglory [6]; POSTEMERGENCE, Rate 10 g/ha
  Plant response rating, Morningglory: 10
Morningglory [6]; POSTEMERGENCE, Rate 50 g/ha
  Plant response rating, Morningglory: 10
Morningglory [6]; PREEMERGENCE, Rate 50 g/ha
  Plant response rating, Morningglory: 2
